Measured values as given in ChEMBL document CHEMBL5543137, “Design and Synthesis of Novel Ultralong-Acting Peptides as EDP-EBP Interaction Inhibitors for Pulmonary Fibrosis Treatment” (J Med Chem, 2024).
Active and inactive are the calls of the source. Starred links: 1 amine or outer side, 2 acyl side, 3 side chain; linkers in the order of their positions; H or OH if unused. Non-standard residues stand in square brackets, D forms with d. Residues, ends and D or L forms follow the SMILES beside them. *: point of attachment. C20 diacid = O=C(O)CCCCCCCCCCCCCCCCCCC(=O)*; γGlu = O=C(O)[C@H](CCC(=O)[*:2])N[*:1]; Iva = CC[C@](C)(N)C(=O)O; PEG2 = NCCOCCOCCC(=O)O

Columns and labels:
Mus musculus [1] = experiment: Antifibrotic activity against BLM-induced C57BL/6 mouse pulmonary fibrosis model assessed as reduction in Fbn1 gene expression at 240 ug/kg/day, sc administered for 2 weeks starting from 7 days post BLM induction and measured after 21 days post BLM induction by ScRNA-sequencing analysis; format: functional, organism-based; settings: dose 240.0 µg/kg/day
Mus musculus [2] = experiment: Antifibrotic activity against BLM-induced C57BL/6 mouse pulmonary fibrosis model assessed as reduction in Mgp gene expression at 240 ug/kg/day, sc administered for 2 weeks starting from 7 days post BLM induction and measured after 21 days post BLM induction by ScRNA-sequencing analysis; format: functional, organism-based; settings: dose 240.0 µg/kg/day
Mus musculus [3] = experiment: Antifibrotic activity against BLM-induced C57BL/6 mouse pulmonary fibrosis model assessed as reduction in Acta2 gene expression at 240 ug/kg/day, sc administered for 2 weeks starting from 7 days post BLM induction and measured after 21 days post BLM induction by ScRNA-sequencing analysis; format: functional, organism-based; settings: dose 240.0 µg/kg/day
A549 = experiment: Inhibition of EBP signaling pathway in TGFalpha induced human A549 cells assessed as reduction in AKT phosphorylation at 10 uM incubated for 24 hrs by Western blotting analysis; format: cell-based
Mus musculus [4] = experiment: Antifibrotic activity against BLM-induced C57BL/6 mouse pulmonary fibrosis model assessed as downregulation of Mmp-9 gene expression in lung tissue at 150 ug/kg, sc administered for 2 weeks starting from 7 days post BLM induction and measured after 21 days post BLM induction by RT-qPCR assay; format: functional, organism-based; settings: dose 150.0 µg/kg
Mus musculus [5] = experiment: Antifibrotic activity against BLM-induced C57BL/6 mouse pulmonary fibrosis model assessed as reduction in Eln gene expression at 240 ug/kg/day, sc administered for 2 weeks starting from 7 days post BLM induction and measured after 21 days post BLM induction by ScRNA-sequencing analysis; format: functional, organism-based; settings: dose 240.0 µg/kg/day
Mus musculus [6] = experiment: Antifibrotic activity against BLM-induced C57BL/6 mouse pulmonary fibrosis model assessed as downregulation of TNFalpha gene expression in lung tissue at 150 ug/kg, sc administered for 2 weeks starting from 7 days post BLM induction and measured after 21 days post BLM induction by RT-qPCR assay; format: functional, organism-based; settings: dose 150.0 µg/kg

CC[C@](C)(NC(=O)[C@@H](NC(=O)CCOCCOCCNC(=O)CCOCCOCCNC(=O)CC[C@H](NC(=O)CCCCCCCCCCCCCCCCCCC(=O)O)C(=O)O)C(C)C)C(=O)NCC(=O)N[C@@H](CO)C(=O)N1CCC[C@H]1C(=O)N[C@@H](CO)C(=O)N[C@@H](C)C(=O)N[C@@H](CCC(N)=O)C(=O)N[C@@H](CCC(=O)O)C(=O)N[C@@H](CCC(=O)O)C(=O)N[C@@H](C)C(=O)N[C@@H](CO)C(=O)N1CCC[C@H]1C(=O)N[C@@H](C)C(N)=O ({C20 diacid-γGlu-PEG2-PEG2}-V[Iva]GSPSAQEEASPA-NH2)
active: Activity (Mus musculus [1]) | Activity (Mus musculus [2]) | Activity (Mus musculus [3]) | inhibition (A549) | Activity (Mus musculus [4]) | Activity (Mus musculus [5]) | Activity (Mus musculus [6])
